In the supplement of paper PMC10307832:

Key:
Test in all cases: relative viability (nuclei count vs DMSO), 5 days (fraction); higher = more cells survive
[1] = compound: O=c1ncccn1[C@@H]1O[C@H](CO)[C@@H](O)[C@H]1O [Zebularine] + NC(=O)Nc1cc(-c2cccc(F)c2)sc1C(=O)N[C@H]1CCCNC1 [AZD7762] (partner 0.2 µM)
Method in brief: (§1)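 After 5 days of treatment, lung cancer cells in 1536-well plates were fixed and stained in a single step (final 0.05% Triton X-100, 1% formaldehyde, 1 ug/ml Hoechst) and their nuclei counted on 4× images. Treatment had been applied by pin tool the day after seeding as one drug alone or as a fixed anchor-drug dose with five library-drug doses (not always all listed) in √10 steps. Relative viability is the nuclei count of treated wells divided by that of vehicle wells, and values are medians of duplicate plates.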

[2] = compound: O=c1ncccn1[C@@H]1O[C@H](CO)[C@@H](O)[C@H]1O [Zebularine] + N=C(N)NC(=N)NCCc1ccccc1 [Phenformin] (partner 250 µM)
Method in brief: as §1

[3] = compound: CC(C)CCN1c2nc(Nc3cc(F)c(O)c(F)c3)ncc2N(C)C(=O)C1C [BI-D1870] + O=C(CCCCCCC(=O)Nc1ccccc1)NO [Vorinostat] (partner 1 µM)
Method in brief: as §1

[4] = compound: CC(C)CCN1c2nc(Nc3cc(F)c(O)c(F)c3)ncc2N(C)C(=O)C1C [BI-D1870] + CC(C)C[C@H](NC(=O)[C@H](Cc1ccccc1)NC(=O)c1cnccn1)B(O)O [Bortezomib] (partner 0.002 µM)
Method in brief: as §1

Cell Line | relative viability ([1]; first compound 1 µM) | relative viability ([1]; first compound 3.162 µM) | relative viability ([1]; first compound 10 µM) | relative viability ([1]; first compound 31.62 µM) | relative viability ([1]; first compound 100 µM) | relative viability ([2]; first compound 1 µM) | relative viability ([2]; first compound 3.162 µM) | relative viability ([2]; first compound 10 µM) | relative viability ([2]; first compound 31.62 µM) | relative viability ([2]; first compound 100 µM) | relative viability ([3]; first compound 0.04 µM) | relative viability ([3]; first compound 0.1265 µM) | relative viability ([3]; first compound 0.4 µM) | relative viability ([3]; first compound 1.265 µM) | relative viability ([3]; first compound 4 µM) | relative viability ([4]; first compound 0.04 µM) | relative viability ([4]; first compound 0.1265 µM) | relative viability ([4]; first compound 0.4 µM) | relative viability ([4]; first compound 1.265 µM) | relative viability ([4]; first compound 4 µM)
NCI-H838 | 0.934 | 0.977 | 0.764 | 0.861 | 0.738 | 0.695 | 0.668 | 0.549 | 0.509 | 0.285 | 0.719 | 0.643 | 0.682 | 0.68 | 0.558 | 0.901 | 0.72 | 0.747 | 1.14 | 0.768
A-427 | 0.753 | 0.628 | 0.487 | 0.501 | 0.287 | 0.361 | 0.302 | 0.262 | 0.279 | 0.213 | 0.917 | 0.843 | 0.817 | 0.807 | 0.501 | 1.08 | 1.01 | 0.936 | 1.08 | 0.968
LCLC-97TM1 | 0.127 | 0.216 | 0.142 | 0.134 | 0.13 | 0.401 | 0.413 | 0.322 | 0.256 | 0.272 | 1 | 0.684 | 0.722 | 0.868 | 0.472 | 0.833 | 0.693 | 0.734 | 0.957 | 0.372
LCLC-103H | 0.8 | 0.798 | 0.579 | 0.802 | 0.689 | 0.365 | 0.337 | 0.261 | 0.391 | 0.303 | 0.886 | 0.719 | 0.786 | 0.755 | 0.535 | 1.28 | 1.09 | 1.06 | 1.17 | 1.06
PC-3 [JPC-3] | 0.933 | 0.944 | 0.618 | 0.826 | 0.611 | 0.461 | 0.486 | 0.437 | 0.46 | 0.396 | 0.817 | 0.795 | 0.81 | 0.625 | 0.394 | 0.74 | 0.859 | 0.825 | 0.889 | 0.829
BEN | 0.808 | 0.587 | 0.504 | 0.496 | 0.296 | 0.285 | 0.242 | 0.276 | 0.251 | 0.202 | 0.538 | 0.504 | 0.595 | 0.628 | 0.534 | 0.897 | 0.793 | 0.971 | 0.979 | 0.663
NCI-H1666 | 0.91 | 0.841 | 0.726 | 0.916 | 0.654 | 0.594 | 0.551 | 0.531 | 0.591 | 0.495 | 1.03 | 1.01 | 0.942 | 0.956 | 1.02 | 0.871 | 0.598 | 0.985 | 0.879 | 0.754
LC-2-ad | 0.907 | 0.888 | 0.525 | 0.812 | 0.357 | 0.657 | 0.538 | 0.416 | 0.488 | 0.325 | 0.696 | 0.646 | 0.701 | 0.705 | 0.56 | 1.11 | 0.921 | 0.999 | 1.04 | 0.953
ChaGo-K-1 | 0.916 | 0.862 | 0.427 | 0.337 | 0.249 | 0.51 | 0.458 | 0.278 | 0.25 | 0.204 | 0.8 | 0.703 | 0.711 | 0.72 | 0.641 | 1.03 | 1.05 | 0.608 | 0.942 | 0.933
NCI-H1975 | 0.747 | 0.748 | 0.549 | 0.499 | 0.345 | 0.416 | 0.417 | 0.229 | 0.221 | 0.148 | 0.747 | 0.617 | 0.686 | 0.664 | 0.425 | 0.487 | 0.44 | 0.386 | 0.339 | 0.175
NCI-H1993 | 0.76 | 0.881 | 0.625 | 0.671 | 0.493 | 0.556 | 0.477 | 0.534 | 0.449 | 0.548 | 0.763 | 0.689 | 0.767 | 1.1 | 0.631 | 1.22 | 0.961 | 1.12 | 1.31 | 0.981
RERF-LC-KJ | 1.11 | 1 | 0.896 | 1.13 | 0.959 | 0.403 | 0.431 | 0.35 | 0.41 | 0.406 | 0.66 | 0.633 | 0.669 | 0.642 | 0.47 | 1.12 | 0.997 | 1.13 | 1.25 | 0.946
NCI-H23 | 0.3 | 0.375 |  | 0.23 | 0.254 | 0.847 | 0.821 | 0.423 | 0.75 | 0.77 | 0.555 | 0.619 | 0.489 | 0.448 | 0.202 | 1.44 | 0.85 | 1.16 | 1.03 | 0.529
HCC-366 | 0.336 | 0.264 | 0.219 | 0.463 | 0.162 | 0.709 | 0.613 | 0.495 | 0.503 | 0.0892 | 0.502 | 0.331 | 0.294 | 0.316 | 0.1 | 1.1 | 0.911 | 1.05 | 1.1 | 0.317
EMC-BAC-2 | 1.19 | 1.2 | 0.792 | 1.2 | 1.15 | 0.656 | 0.569 | 0.334 | 0.662 | 0.516 | 0.495 | 0.519 | 0.397 | 0.461 | 0.413 | 1.18 | 0.964 | 1.02 | 1.09 | 1.05
NCI-H2405 | 0.798 | 0.792 | 0.545 | 0.875 | 0.688 | 0.425 | 0.378 | 0.352 | 0.435 | 0.335 | 1.04 | 1.03 | 1 | 0.974 | 0.9 | 1.07 | 0.89 | 0.959 | 1.02 | 1.02
EPLC-272H | 0.171 |  | 0.183 | 0.192 | 0.24 | 0.272 | 0.286 | 0.227 | 0.255 | 0.238 | 0.523 | 0.663 | 0.484 | 0.297 | 0.148 | 0.887 | 0.99 | 1.01 | 1.1 | 0.772
NCI-H1915 | 0.788 | 0.7 | 0.616 | 0.728 | 0.671 | 0.373 | 0.381 |  | 0.379 | 0.349 | 0.55 | 0.484 | 0.513 | 0.489 | 0.436 | 1.04 | 0.951 | 0.905 | 1.03 | 0.879
NCI-H596 | 1.23 | 1.09 | 0.843 | 1.01 | 1.07 | 0.844 | 0.817 | 0.579 | 0.776 | 0.807 | 0.666 | 0.591 | 0.65 | 0.59 | 0.511 | 1.38 | 0.86 | 1.12 | 1.19 | 0.943
NCI-H322M | 0.555 | 0.606 | 0.572 | 0.522 | 0.528 | 0.816 | 0.747 | 0.568 | 0.73 | 0.671 | 0.919 | 0.879 | 0.76 | 0.781 | 0.769 | 1.23 | 1.24 | 1.22 | 1.14 | 1.06
NCI-H647 | 0.814 | 0.445 | 0.256 | 0.259 | 0.211 | 0.539 | 0.48 | 0.178 | 0.22 | 0.12 | 0.666 | 0.346 | 0.669 | 0.536 | 0.335 | 1.02 | 0.857 | 1.08 | 1.31 | 0.743
NCI-H2085 | 1.11 | 1.07 | 0.788 | 1.13 | 0.66 | 0.761 | 0.663 | 0.566 | 0.673 | 0.539 | 0.828 | 0.733 | 0.709 | 0.781 | 0.509 | 1.17 | 0.994 | 0.947 | 0.968 | 0.762
NCI-H727 | 0.785 | 0.703 | 0.606 | 0.646 | 0.574 | 0.628 |  |  | 0.693 | 0.528 | 1.32 | 1.22 | 0.986 | 1.19 | 1.08 | 0.813 | 0.724 | 0.913 | 1.24 | 0.833
NCI-H441 | 1.37 | 1.27 | 0.536 | 0.418 | 0.369 | 0.803 | 0.73 | 0.366 | 0.309 | 0.396 | 0.686 | 0.794 | 0.731 | 0.722 | 0.655 | 0.749 | 0.535 | 0.796 | 0.777 | 0.71
LOU-NH91 | 0.522 | 0.751 | 0.568 | 0.743 | 0.627 | 0.674 | 0.717 | 0.437 | 0.693 | 0.549 | 0.991 | 0.859 | 0.876 | 0.858 | 0.655 | 0.485 | 0.465 | 0.451 | 0.484 | 0.466
NCI-H3122 | 1.05 | 1.12 | 0.846 | 1.04 | 1.02 | 0.434 | 0.389 | 0.332 | 0.385 | 0.352 | 1.05 | 0.633 | 0.858 | 1.21 | 0.998 | 1 | 0.932 | 1.05 | 1.03 | 0.996
NCI-H460 | 0.781 | 0.716 | 0.294 | 0.434 | 0.126 | 0.601 | 0.592 | 0.364 | 0.127 | 0.0588 | 0.922 | 0.643 | 0.672 | 0.37 | 0.0691 | 1.45 | 1.01 | 1.06 | 0.686 | 0.51
